Starred links: 1 amine or outer side, 2 acyl side, 3 side chain; linkers in the order of their positions; H or OH if unused. Positions of bridges follow the written chain, without caps; N, C: chain ends. Non-standard residues stand in square brackets, D forms with d. Residues, ends and D or L forms follow the SMILES beside them. *: point of attachment. hPhe(3,5-F2-4-CF3) = N[C@@H](CCc1cc(F)c(C(F)(F)F)c(F)c1)C(=O)O; hPhe(3-Cl-4-CF3) = N[C@@H](CCc1ccc(C(F)(F)F)c(Cl)c1)C(=O)O; hPhe(3-F,4-CF3) = N[C@@H](CCc1ccc(C(F)(F)F)c(F)c1)C(=O)O; NMePhe(4-CF3) = CN[C@@H](Cc1ccc(C(F)(F)F)cc1)C(=O)O; hPhe(4-CF3) = N[C@@H](CCc1ccc(C(F)(F)F)cc1)C(=O)O; NMeAla(4-thiazolyl) = CN[C@@H](Cc1cscn1)C(=O)O; NMePhe(4-Cl) = CN[C@@H](Cc1ccc(Cl)cc1)C(=O)O; NMePhe(4-Me) = CN[C@@H](Cc1ccc(C)cc1)C(=O)O; NMePhe(4-F) = CN[C@@H](Cc1ccc(F)cc1)C(=O)O; NMedβ3hAla = C[C@H](CC(=O)[*:2])N(C)[*:1]; NMeGly(cPent) = CN[C@H](C(=O)O)C1CCCC1; NMe4Pal = CN[C@@H](Cc1ccncc1)C(=O)O; NMeCha = CN[C@@H](CC1CCCCC1)C(=O)O; NMeI = CC[C@H](C)[C@H](NC)C(=O)O; dNMeF = CN[C@H](Cc1ccccc1)C(=O)O; NMeβAla = CN(CCC(=O)[*:2])[*:1]; NMeD = CN[C@@H](CC(=O)O)C(=O)O; NMeL = CN[C@@H](CC(C)C)C(=O)O; NMeNle = CCCC[C@H](NC)C(=O)O; NMeV = CN[C@H](C(=O)O)C(C)C; d(β3hA) = C[C@@H](N)CC(=O)O; Pip = O=C(O)[C@@H]1CCCCN1; NMeA = CN[C@@H](C)C(=O)O; NMeAib = CNC(C)(C)C(=O)O; Piperidide = C1CCN(*)CC1; Ac5c = NC1(C(=O)O)CCCC1; Aze = O=C(O)[C@@H]1CCN1; Sar = CNCC(=O)O
molecular target: T1, Kras and SOS1 (biotin-tagged human Kras loaded with GDP, His-tagged human SOS1) (Homo sapiens, UniProt P01116, G12D); experiment: Protein-protein interaction inhibition between Kras and SOS1 (KrasGl2D-SOS PPI) using AlphaScreen; assay type: binding; conditions: AlphaScreen; biotin-tagged human Kras loaded with GDP, His-tagged human SOS1; read-out: KRAS G12D-SOS PPI IC50
T1 construct: made in house; host or cells: E. coli (stated for Kras only)
Procedure, shortened: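 Binding between SOS1 and Kras is detected as bead-proximity luminescence: illuminate Ni-conjugated donors (680 nm), collect 520-620 nm emission from streptavidin-conjugated acceptors; Kras carries biotin and GDP loaded after purification, SOS1 carries a His tag.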

T1 sequence (P01116 1-188 isoform P01116-2 G12D): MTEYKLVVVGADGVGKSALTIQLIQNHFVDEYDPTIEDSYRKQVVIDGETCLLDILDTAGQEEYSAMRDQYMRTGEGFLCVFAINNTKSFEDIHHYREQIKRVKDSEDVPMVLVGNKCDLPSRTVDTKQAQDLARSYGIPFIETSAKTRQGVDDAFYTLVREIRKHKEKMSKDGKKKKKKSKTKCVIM

| SMILES | IC50 [nM] |
| --- | --- |
| CCCC[C@H]1C(=O)N[C@H](C)CC(=O)N(C)[C@@H](CC(C)C)C(=O)N[C@@H]([C@@H](C)CC)C(=O)N(C)CC(=O)N(C)CC(=O)N(C)[C@@H](CC2CCCCC2)C(=O)N(C)CC(=O)N[C@@H](CCc2ccc(C(F)(F)F)c(F)c2)C(=O)N2CCC[C@H]2C(=O)NC2(CCCC2)C(=O)N1C [Compound 1518] (cyclo([Ac5c][NMeNle][d(β3hA)][NMeL]I[Sar][Sar][NMeCha][Sar][hPhe(3-F,4-CF3)]P)) | 370 |
| CC[C@H](C)[C@@H]1NC(=O)[C@H](CC(C)C)N(C)C(=O)C[C@@H](C(=O)N(C)C)N(C)C(=O)[C@H](C2CCCC2)N(C)C(=O)[C@H](C(C)C)NC(=O)[C@H](Cc2ccncc2)N(C)C(=O)[C@H](CCc2ccc(C(F)(F)F)c(Cl)c2)NC(=O)CN(C)C(=O)[C@H](CC2CCCCC2)N(C)C(=O)[C@@H]2CCN2C(=O)[C@H](C)N(C)C1=O [Compound 1982] ([NMeL]I[NMeA][Aze][NMeCha][Sar][hPhe(3-Cl-4-CF3)][NMe4Pal]V[NMeGly(cPent)][NMeD]-NMe2; lactam N-11) | 47 |
| CC[C@H](C)[C@@H]1NC(=O)[C@@H]2CCCCN2C(=O)C[C@@H](C)NC(=O)[C@H](CC(C)C)N(C)C(=O)C2(CCCC2)NC(=O)[C@H](CC(C)C)N(C)C(=O)[C@H](CCc2ccc(C(F)(F)F)cc2)NC(=O)CN(C)C(=O)[C@H](Cc2ccc(Cl)cc2)N(C)C(=O)CN(C)C(=O)CN(C)C1=O [Compound 847] (cyclo([Ac5c][NMeL][d(β3hA)][Pip]I[Sar][Sar][NMePhe(4-Cl)][Sar][hPhe(4-CF3)][NMeL])) | 54 |
| CC[C@H](C)[C@@H]1NC(=O)[C@H](C)N(C)C(=O)C[C@@H](C)N(C)C(=O)[C@H](CC(C)C)N(C)C(=O)C(C)(C)N(C)C(=O)[C@@H]2CCCN2C(=O)[C@H](CCc2ccc(C(F)(F)F)c(Cl)c2)NC(=O)CN(C)C(=O)[C@H](CC2CCCCC2)N(C)C(=O)[C@@H]2CCN2C(=O)[C@H](C)N(C)C1=O [Compound 2160] (cyclo([Aze][NMeCha][Sar][hPhe(3-Cl-4-CF3)]P[NMeAib][NMeL][NMedβ3hAla][NMeA]I[NMeA])) | 3.8 |
| CC[C@H](C)[C@@H]1NC(=O)[C@H](C)N(C)C(=O)C[C@@H](C(=O)N(C)C)N(C)C(=O)[C@H]([C@@H](C)CC)N(C)C(=O)C2(CCCC2)NC(=O)[C@H](Cc2ccc(F)cc2)N(C)C(=O)[C@H](CCc2cc(F)c(C(F)(F)F)c(F)c2)NC(=O)CN(C)C(=O)[C@H](Cc2ccc(C(F)(F)F)cc2)N(C)C(=O)[C@@H]2CCN2C(=O)[C@H](C)N(C)C1=O [Compound 1986] ([NMeA]I[NMeA][Aze][NMePhe(4-CF3)][Sar][hPhe(3,5-F2-4-CF3)][NMePhe(4-F)][Ac5c][NMeI][NMeD]-NMe2; lactam N-11) | 11 |
| CC[C@H](C)[C@@H]1NC(=O)[C@H](CC(C)C)N(C)C(=O)C[C@@H](C(=O)N(C)C)N(C)C(=O)[C@H]([C@@H](C)CC)N(C)C(=O)C2(CCCC2)NC(=O)[C@H](Cc2ccc(F)cc2)N(C)C(=O)[C@H](CCc2cc(F)c(C(F)(F)F)c(F)c2)NC(=O)CN(C)C(=O)[C@H](Cc2ccc(C)cc2)N(C)C(=O)[C@@H]2CCN2C(=O)[C@H](C)N(C)C1=O [Compound 1952] ([NMeL]I[NMeA][Aze][NMePhe(4-Me)][Sar][hPhe(3,5-F2-4-CF3)][NMePhe(4-F)][Ac5c][NMeI][NMeD]-NMe2; lactam N-11) | 8.1 |
| CC[C@H](C)[C@@H]1NC(=O)[C@H](CC(C)C)N(C)C(=O)CCN(C)C(=O)[C@H](C(C)C)N(C)C(=O)C2(CCCC2)NC(=O)[C@@H]2CCCN2C(=O)[C@H](CCc2ccc(C(F)(F)F)c(F)c2)NC(=O)CN(C)C(=O)[C@H](CC2CCCCC2)N(C)C(=O)CN(C)C(=O)CN(C)C1=O [Compound 879] (cyclo([Ac5c][NMeV][NMeβAla][NMeL]I[Sar][Sar][NMeCha][Sar][hPhe(3-F,4-CF3)]P)) | 36 |
| CC[C@H](C)[C@@H]1NC(=O)[C@H](C)N(C)C(=O)C[C@@H](C(=O)N2CCCCC2)N(C)C(=O)[C@H]([C@@H](C)CC)N(C)C(=O)C2(CCCC2)NC(=O)[C@@H](Cc2ccccc2)N(C)C(=O)[C@H](CCc2ccc(C(F)(F)F)c(Cl)c2)NC(=O)CN(C)C(=O)[C@H](Cc2ccc(C(F)(F)F)cc2)N(C)C(=O)[C@@H]2CCN2C(=O)[C@H](C)N(C)C1=O [Compound 1942] ([NMeA]I[NMeA][Aze][NMePhe(4-CF3)][Sar][hPhe(3-Cl-4-CF3)][dNMeF][Ac5c][NMeI][NMeD]-Piperidide; lactam N-11) | 290 |
| CC[C@H](C)[C@@H]1NC(=O)[C@H](CC(C)C)N(C)C(=O)C[C@@H](C(=O)N(C)C)N(C)C(=O)[C@H]([C@@H](C)CC)N(C)C(=O)[C@H](C)NC(=O)[C@H](Cc2cscn2)N(C)C(=O)[C@H](CCc2ccc(C(F)(F)F)c(Cl)c2)NC(=O)CN(C)C(=O)[C@H](Cc2ccc(C)cc2)N(C)C(=O)[C@@H]2CCN2C(=O)[C@H](C)N(C)C1=O [Compound 856] ([NMeL]I[NMeA][Aze][NMePhe(4-Me)][Sar][hPhe(3-Cl-4-CF3)][NMeAla(4-thiazolyl)]A[NMeI][NMeD]-NMe2; lactam N-11) | 14 |

From patent publication US12371454B2, “Cyclic peptide compound having Kras inhibitory action” (priority 2019, dated 2025)
